Series [1] deals with KPC-expressing Enterobacteriaceae (n = 77). The experiment in a line: organism not typed. Type of series: cell-based.
For series [2], the system named is OXA-48-expressing Enterobacteriaceae (n = 39). The experiment in a line: Broth microdilution MIC, ceftibuten/Compound 2 vs IV comparators.
In a further series the test system is E. coli Si-FDL-GES. In words: microbe, parasite or virus in culture. Type of series: cell-based.
In series [3] the test system is ceftibuten-resistant Enterobacteriaceae expressing ESBL (n=20). The experiment in a line: Checkerboard broth microdilution MIC, BLI concentration impact. The class given is cell-based. As to conditions: for MIC50: read-out: CTB MIC50; for MIC90: read-out: CTB MIC90. As for the experimental part: (§1) Minimum inhibitory concentrations (MICs) were determined by broth microdilution method following CLSI guidelines. Tested strains were ceftibuten-resistant Enterobacteriaceae expressing ESBL (n=20), KPC (n=20), OXA-48 (n=20) and/or Class C (n=20) beta-lactamases. For each isolate, one microtiter plate was prepared and formatted as a checkerboard with the BLI (Compound 2 or clavulanic acid) titrated down the plate and ceftibuten titrated across the plate. Each agent was also tested alone. MICs were determined as the well with the lowest concentration of ceftibuten without visible growth at each concentration of BLI.
For orientation: In broth dilution the organism is exposed to a series of concentrations in liquid medium.

Series [4] deals with ceftibuten-resistant Enterobacteriaceae expressing Class C (n=20). The series is described as above. Type of series: cell-based. The settings on record: for MIC50: read-out: CTB MIC50; for MIC90: read-out: CTB MIC90. As for the experimental part: as §1
The test system of series [5] is ceftibuten-resistant Enterobacteriaceae expressing OXA-48 (n=20). The series is described as above. The settings on record: for MIC50: read-out: CTB MIC50; for MIC90: read-out: CTB MIC90. Type of series: cell-based. As for the experimental part:
as §1

In series [6] the test system is ceftibuten-resistant Enterobacteriaceae, All isolates. Described as above. The class given is cell-based. As to conditions: for MIC50: read-out: CTB MIC50; for MIC90: read-out: CTB MIC90. As for the experimental part: as §1
Series [7] is described as follows: Single ascending dose pharmacokinetics, Solutol HS-15:Water (10:90). The class given is in vivo, Beagle dogs. The settings on record: beagle, dog, plasma, iv, 10 mg/kg.
Series [8] is described as follows: Metabolic stability in plasma. As to conditions: Sprague-Dawley, Rat, test conc. 3 μM. Type of series: in vitro ADME.
The nature of series [9]: Metabolic stability in plasma. Type of series: in vitro ADME, beagle dog. As to conditions: beagle, plasma; Dog; test conc. 3 μM.
The nature of series [10]: Single ascending dose pharmacokinetics, Solutol HS-15:Water (20:80). As to conditions: cynomolgus monkey, plasma, iv, 1 mg/kg. Type of series: in vivo, Cynomolgus monkeys. The protocol: (§2) This study included dose concentrations ranging from 2-120 mg/mL.
A further series has as its target T1, NDM-1 (Klebsiella pneumoniae, UniProt C7C422).
T1 construct: expressed as native untagged proteins; made in house; host or cells: E. coli BL21(DE3)
The experiment in a line: Beta-lactamase enzyme inhibition (IC50). Type of series: biochemical.

Another series addresses T2, VIM-2 (Escherichia coli, UniProt Q5U7L7).
T2 construct: expressed as native untagged proteins; made in house; host or cells: E. coli BL21(DE3)
In words: Beta-lactamase enzyme inhibition (IC50). Type of series: biochemical. As for the experimental part:
For VIM-2 metallo beta-lactamase, the procedure was identical with the following exceptions, first the protein was not pH adjusted to pH 5 with 50 mM sodium acetate, second, the chromatography step was changed to a 5 ml Q sepharose anion exchange column pre-equilibrated with 50 mM Hepes pH 7.5, and elution of the protein was achieved by a linear gradient of NaCl (0-600 mM). Finally, the VIM-2 purification required a second run (3rd step) on the Q sepharose anion exchange column to achieve acceptable purity (>90%).

The nature of series [11]: Metabolic stability in plasma. As to conditions: plasma; Human; test conc. 3 μM. Type of series: in vitro ADME.
The next series concerns the target T3, CTX-M-15 (Escherichia coli, UniProt Q9EXV5).
T3 construct: expressed as native untagged proteins; made in house; host or cells: E. coli BL21(DE3)
The experiment in a line: Beta-lactamase enzyme inhibition (IC50). The class given is biochemical.

Series [12] has as its system four beta-lactamase expressing Enterobacteriaceae (1 KPC, 1 p99, 1 CTX-M-15, and 1 OXA-48). In words: Time-kill kinetic analyses. The settings on record: Compound 2 fixed at 4 μg/mL, 24 hours. The class given is cell-based. The protocol:
Activity was determined against four beta-lactamase expressing Enterobacteriaceae (1 KPC, 1 p99, 1 CTX-M-15, and 1 OXA-48). […] Macrodilution tubes were incubated with shaking and bacterial amounts were quantified at 0, 2, 4, 6, 8, and 24 hours by limiting dilutions. Amoxicillin/clavulanic acid (2:1) was used as a comparator oral antibacterial.

Series [13] is described as follows: Single ascending dose pharmacokinetics, Solutol HS-15:Water (20:80). The settings on record: male, Sprague-Dawley, rat, plasma, iv, 10 mg/kg. The class given is in vivo, Sprague-Dawley rats. As for the experimental part: as §2
In the next series the target is T4, OXA-1 (Escherichia coli, UniProt P13661).
T4 construct: expressed as native untagged proteins; made in house; host or cells: E. coli BL21(DE3)
In words: Beta-lactamase enzyme inhibition (IC50). The class given is biochemical.

A short description of series [14]: Metabolic stability in liver S9. The class given is in vitro ADME, CD-1 mouse. As to conditions: CD-1, liver S9; Mouse; test conc. 3 μM.
The target of the next series is T5, CMY-2 (Klebsiella pneumoniae, UniProt Q48434).
T5 construct: expressed as native untagged proteins; made in house; host or cells: E. coli BL21(DE3)
In words: Beta-lactamase enzyme inhibition (IC50). The class given is biochemical.

Series [15] in a line: Metabolic stability in intestinal S9. Type of series: in vitro ADME, Sprague-Dawley rat. The settings on record: Sprague-Dawley, intestinal S9; Rat; test conc. 3 μM.
The next series addresses T6, KPC-2 (Klebsiella pneumoniae, UniProt Q9F663).
T6 construct: expressed as native untagged proteins; made in house; host or cells: E. coli BL21(DE3)
The experiment in a line: Beta-lactamase enzyme inhibition (IC50). Type of series: biochemical.

Series [16] can be described thus: Metabolic stability in intestinal S9. The class given is in vitro ADME, CD-1 mouse. The settings on record: CD-1, intestinal S9; Mouse; test conc. 3 μM.
The nature of series [17]: Metabolic stability in liver S9. The class given is in vitro ADME, beagle dog. As to conditions: beagle, liver S9; Dog; test conc. 3 μM.
Another series deals with T7, IMP-1 (Serratia marcescens, UniProt P52699).
T7 construct: expressed as native untagged proteins; made in house; host or cells: E. coli BL21(DE3)
In words: Beta-lactamase enzyme inhibition (IC50). The class given is biochemical.

≈ marks a conversion by molar mass, not a printed value.

For orientation: MIC90 means the lowest concentration that inhibits either 90% of growth or 90% of the strains tested, depending on the study. By MIC50 is commonly meant the lowest concentration that inhibits either 50% of growth or 50% of the strains tested, depending on the study. Broadly, the AUC(0-inf) is the area under the concentration-time curve extrapolated to infinity. Usually Cmax stands for the highest concentration seen after dosing. As a reminder, the half-life is the time in which the quantity being followed falls by half. Read a low half-life as fast loss. What is called IC50 is the concentration needed to halve the response being measured. A higher IC50 goes with lower potency.

On to `Nc1nc(/C(=C/CC(=O)O)C(=O)N[C@@H]2C(=O)N3C(C(=O)O)=CCS[C@H]23)cs1` [Ceftibuten, ceftibuten, reference compound], for which, in series [1] (KPC-expressing (n = 77)), the “Number of strains at MIC value 0.5 mg/L” value is 2, the “Number of strains at MIC value 1 mg/L” value came to 2, the “Number of strains at MIC value 2 mg/L” value amounted to 4 and the “Number of strains at MIC value 4 mg/L” value is on record as 7. Also, in [1] (KPC-expressing (n = 77)), the “Number of strains at MIC value 8 mg/L” value came to 13, the “Number of strains at MIC value 16 mg/L” value was found to be 24, the “Number of strains at MIC value […]” value is on record as 0 and the “Number of strains at MIC value ≤0.06 mg/L” value is given as 0. In addition, the “Number of strains at MIC value ≥32 mg/L” value in series [1] (KPC-expressing (n = 77)) is 25. This molecule also returned an MIC90 in series [1] (iv) not below 32 µg/mL. In series [2], this molecule registered an MIC50 of 16 µg/mL (≈ 39 µM) and an MIC90 not below 32 µg/mL.
As to `O=C(O)[C@H]1/C(=C/CO)O[C@@H]2CC(=O)N21` [Clavulanic acid, clavulanic acid, reference compound], in the series on E. coli Si-FDL-GES (with inhibitor at 4 μg/mL), the “MIC of cefalexin (LEX)” value came out at 1 µg/mL, the “MIC of cefdinir (CDR)” value is 1 µg/mL, the “MIC of cefixime (CFM)” value stood at 0.5 µg/mL and the “MIC of ceftibuten (CTB)” value was found to be 0.25 µg/mL. For the same molecule, in [3], the MIC50 turned out to be 0.5 µg/mL and the MIC90 came to 2 µg/mL. Further, in series [4], the MIC50 amounted to 2 µg/mL and the MIC90 was more than 32 µg/mL. For the same molecule, in [5], the MIC50 was found to be 8 µg/mL and the MIC90 was more than 32 µg/mL. For the same molecule, in [6], the MIC50 turned out to be 4 µg/mL and the MIC90 was 32 µg/mL.
For the molecule `CCC(=O)N[C@H]1Cc2cccc(C(=O)O)c2OB1O` [Compound 2, (R)-2-hydroxy-3-propionamido-3,4-dihydro-2H-benzo[e][1,2]oxaborinine-8-carboxylic acid], the results for the AUC(0-inf) in series [7], in series [10] and in [13] were 39300 ng·h/mL, 10000 ng·h/mL and 6700 ng·h/mL, respectively. In addition, the Cmax in series [7] was 54500 ng/mL; in series [10], 26000 ng/mL; in series [13] it was 23700 ng/mL. Besides, the half-life at 3 μM in series [8], in series [9], in [11], in series [14], in series [15] and in series [16] was more than 2 h each time. The molecule further registered a half-life at 3 μM in series [17] of more than 2 h. Further, the IC50 against NDM-1 is 38100 nM; against VIM-2, 9040 nM; against CTX-M-15, 18 nM; against OXA-1 it was 66 nM; against CMY-2 it was 14 nM; at KPC-2 it was 80 nM. Further, on IMP-1, the half-maximal inhibitory concentration (IC50) was more than 100000 nM. Besides, the “MIC of cefalexin (LEX)” value in the series with E. coli Si-FDL-GES (with inhibitor at 1 μg/mL), with E. coli Si-FDL-GES (with inhibitor at 2 μg/mL) and with E. coli Si-FDL-GES (with inhibitor at 4 μg/mL) was 0.5 µg/mL each time. For the same molecule, the “MIC of cefdinir (CDR)” value in the series on E. coli Si-FDL-GES (with inhibitor at 1 μg/mL), in the series on E. coli Si-FDL-GES (with inhibitor at 2 μg/mL) and with E. coli Si-FDL-GES (with inhibitor at 4 μg/mL) was 0.5 µg/mL in each case. Also, the “MIC of cefixime (CFM)” value came out at 0.25 µg/mL with E. coli Si-FDL-GES (with inhibitor at 1 μg/mL), 0.125 µg/mL in the series with E. coli Si-FDL-GES (with inhibitor at 2 μg/mL) and 0.125 µg/mL in the series with E. coli Si-FDL-GES (with inhibitor at 4 μg/mL). In addition, the “MIC of ceftibuten (CTB)” value in the series with E. coli Si-FDL-GES (with inhibitor at 1 μg/mL), in the series with E. coli Si-FDL-GES (with inhibitor at 2 μg/mL) and in the series on E. coli Si-FDL-GES (with inhibitor at 4 μg/mL) was 0.125 µg/mL each time. Also, in [12], the “rescue of ceftibuten to cidality in time-kill” value is “able to rescue ceftibuten to a cidal endpoint through 24 hours”. Also, the MIC50 stood at 0.25 µg/mL in [3], 0.25 µg/mL in series [4], 0.125 µg/mL in series [5] and 0.25 µg/mL in series [6]. The MIC90 in series [3] worked out at 0.5 µg/mL; in [4] it was 1 µg/mL; in series [5] it was 0.5 µg/mL; in series [6], 1 µg/mL.

The record behind these values is patent US12544395B2, “Combination compositions comprising a beta-lactamase inhibitor and uses thereof” (priority 2018, dated 2026).
